This test has as its system P388 leukemia ip, CD2F1 mice, survival T/C. The experiment in a line: NCI In Vivo Anticancer Drug Screen. Data for tumor model P388 Leukemia (intraperitoneal) in CD2F1 (CDF1) mice. The note with it: endpoint: median survival time, higher = longer survival. The method in brief:
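Mice carrying the transplanted tumor received test compound or vehicle. Survival was recorded in each group, and the value is the treated-group measurement divided by that of the vehicle-treated control group.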

The mark [1] stands for this setting: dose: 6.25 mg/kg/injection, schedule: Q01DX005 (ip), vehicle: saline.
Setting [2] is: dose: 12.5 mg/kg/injection, schedule: Q01DX005 (ip), vehicle: saline.
Setting [3] is: dose: 25.0 mg/kg/injection, schedule: Q01DX005 (ip), vehicle: saline.
The mark [4] stands for this setting: dose: 200.0 mg/kg/injection, schedule: Q01DX009 (ip), vehicle: saline.
The mark [5] stands for this setting: dose: 50.0 mg/kg/injection, schedule: Q01DX005 (ip), vehicle: Klucel (hydroxypropylcellulose) (HPC).
The mark [6] stands for this setting: dose: 100.0 mg/kg/injection, schedule: Q01DX005 (ip), vehicle: Klucel (hydroxypropylcellulose) (HPC).
The mark [7] stands for this setting: dose: 200.0 mg/kg/injection, schedule: Q01DX005 (ip), vehicle: Klucel (hydroxypropylcellulose) (HPC).
[8] abbreviates: dose: 60.0 mg/kg/injection, schedule: Q01DX005 (ip), vehicle: saline with Tween-80.
The mark [9] stands for this setting: dose: 120.0 mg/kg/injection, schedule: Q01DX005 (ip), vehicle: saline with Tween-80.
The mark [10] stands for this setting: dose: 240.0 mg/kg/injection, schedule: Q01DX005 (ip), vehicle: saline with Tween-80.
The mark [11] stands for this setting: dose: 50.0 mg/kg/injection, schedule: Q01DX009 (ip), vehicle: Klucel (hydroxypropylcellulose) (HPC).
Setting [12] is: dose: 100.0 mg/kg/injection, schedule: Q01DX009 (ip), vehicle: Klucel (hydroxypropylcellulose) (HPC).
Where [13] appears, read: dose: 200.0 mg/kg/injection, schedule: Q01DX009 (ip), vehicle: Klucel (hydroxypropylcellulose) (HPC).

Several values for one entry are separate records, joined by “and”; a condition that tells them apart may be missing. Equal entries are not always repeated. Inconclusive results and toxic doses are left out.

Drawing on PubChem BioAssay AID330 (DTP/NCI, 2004), this text covers T/C for 21 compounds.

On to `COc1cc(NCCCCCNC(C)C)c2ncccc2c1`, for which the T/C is, setting by setting: (dose: 12.5 mg/kg/injection, schedule: Q01DX005 (ip), vehicle: saline with Tween-80) 103 % of control; (dose: 25.0 mg/kg/injection, schedule: Q01DX005 (ip), vehicle: saline with Tween-80) 113 % of control; (dose: 50.0 mg/kg/injection, schedule: Q01DX005 (ip), vehicle: saline with Tween-80) 100 % of control.
For `CC1=CC(=Nc2cc(Br)c(O)c(Br)c2)C=CC1=O`, the T/C is 100 % of control under setting [1], 100 % of control under setting [2] and 105 % of control under setting [3].
Regarding `CCOC(=O)c1coc(N)n1`, the T/C (dose: 12.5 mg/kg/injection, schedule: Q01DX009 (ip), vehicle: other) was 98 % of control; the T/C (dose: 25.0 mg/kg/injection, schedule: Q01DX009 (ip), vehicle: other) was 100 % of control; the T/C (dose: 50.0 mg/kg/injection, schedule: Q01DX009 (ip), vehicle: other) was 106 % of control; the T/C (dose: 100.0 mg/kg/injection, schedule: Q01DX009 (ip), vehicle: other) was 107 % of control; the T/C (dose: 200.0 mg/kg/injection, schedule: Q01DX009 (ip), vehicle: other) is 103 % of control.
Take `Cn1c(N)c(N=Nc2cccnc2)c(=O)n(C)c1=O`: the T/C runs as follows: (dose: 100.0 mg/kg/injection, schedule: Q01DX001 (ip), vehicle: saline with Tween-80) 95 % of control; (dose: 200.0 mg/kg/injection, schedule: Q01DX001 (ip), vehicle: saline with Tween-80) 98 % of control; (dose: 400.0 mg/kg/injection, schedule: Q01DX001 (ip), vehicle: saline with Tween-80) 95 % of control.
As for `Nc1ncnc2c1nc(F)n2C1OC(CO)C(O)C1O` (centres undefined), the T/C under setting [1] was 107 % of control, the T/C under setting [2] was 108 % of control and the T/C under setting [3] was 108 % of control.
In the case of `CCCCCCC(C)NCC(O)COc1cccc(C)c1` (centres undefined), the T/C by setting is: (dose: 3.12 mg/kg/injection, schedule: Q01DX009 (ip), vehicle: Klucel (hydroxypropylcellulose) (HPC)) 111 % of control; (dose: 6.25 mg/kg/injection, schedule: Q01DX009 (ip), vehicle: Klucel (hydroxypropylcellulose) (HPC)) 107 % of control; (dose: 12.5 mg/kg/injection, schedule: Q01DX009 (ip), vehicle: Klucel (hydroxypropylcellulose) (HPC)) 111 % of control.
For `O=CN1CCCC1Cc1ccccc1` (centres undefined), the T/C (dose: 50.0 mg/kg/injection, schedule: Q01DX001 (ip), vehicle: Klucel (hydroxypropylcellulose) (HPC)) was 101 % of control and the T/C (dose: 100.0 mg/kg/injection, schedule: Q01DX001 (ip), vehicle: Klucel (hydroxypropylcellulose) (HPC)) is 96 % of control.
For `C=CC(C)n1ccnc1` (centres undefined), the T/C (dose: 50.0 mg/kg/injection, schedule: Q01DX009 (ip), vehicle: saline) was 101 % of control; the T/C (dose: 100.0 mg/kg/injection, schedule: Q01DX009 (ip), vehicle: saline) was 97 % of control; the T/C under setting [4] is 102 % of control.
Consider `NNC(=S)N/N=C/c1ccccn1`, for which the T/C is 99 % of control (dose: 0.78 mg/kg/injection, schedule: Q01DX009 (ip), vehicle: saline); 102 % of control and 117 % of control (dose: 1.56 mg/kg/injection, schedule: Q01DX009 (ip), vehicle: saline); 107 % of control (dose: 1.56 mg/kg/injection, schedule: Q01DX009 (ip), vehicle: suspension in saline); 109 % of control (dose: 3.12 mg/kg/injection, schedule: Q01DX009 (ip), vehicle: suspension in saline); 100 % of control (dose: 6.25 mg/kg/injection, schedule: Q01DX009 (ip), vehicle: saline with Tween-80); 110 % of control (dose: 6.25 mg/kg/injection, schedule: Q01DX009 (ip), vehicle: saline). Further, the T/C (dose: 6.25 mg/kg/injection, schedule: Q01DX009 (ip), vehicle: suspension in saline) was 111 % of control; the T/C (dose: 12.5 mg/kg/injection, schedule: Q01DX009 (ip), vehicle: saline) is 150 % of control; the T/C (dose: 16.5 mg/kg/injection, schedule: Q01DX009 (ip), vehicle: saline sonified) is 122 % of control; the T/C (dose: 25.0 mg/kg/injection, schedule: Q01DX009 (ip), vehicle: saline with Tween-80) was 150 % of control; the T/C (dose: 25.0 mg/kg/injection, schedule: Q01DX009 (ip), vehicle: saline) is 154 % of control and 170 % of control.
Take `O=C=Nc1cccc2c1C(=O)c1ccccc1-2`: the T/C is 91 % of control under setting [5], 88 % of control under setting [6] and 86 % of control under setting [7].
Regarding `COc1ccccc1NC(=O)C1=C(C)NC(C)=C(C(=O)Nc2ccccc2OC)C1c1ccc(OC)c(OC)c1`, the T/C is 103 % of control under setting [8], 99 % of control under setting [9] and 94 % of control under setting [10].
With `O=C1CSC(=S)N1c1cccc(Cl)c1`, the T/C under setting [11] is 107 % of control and 122 % of control; the T/C under setting [12] is 118 % of control and 121 % of control; the T/C under setting [13] is 111 % of control; the T/C (dose: 400.0 mg/kg/injection, schedule: Q01DX009 (ip), vehicle: Klucel (hydroxypropylcellulose) (HPC)) was 100 % of control.
As for `O=c1c2ccccc2sc2c([N+](=O)[O-])ccc(NCCC3CCCN4CCCCC34)c12` (centres undefined), the T/C reads like this: (dose: 44.5 mg/kg/injection, schedule: Q01DX005 (ip), vehicle: saline with Tween-80) 95 % of control; (dose: 89.0 mg/kg/injection, schedule: Q01DX005 (ip), vehicle: saline with Tween-80) 94 % of control; (dose: 178.0 mg/kg/injection, schedule: Q01DX005 (ip), vehicle: saline with Tween-80) 96 % of control; (dose: 356.0 mg/kg/injection, schedule: Q01DX005 (ip), vehicle: saline with Tween-80) 100 % of control.
As for `N#CC1CC=CCN1CCc1ccccc1` (centres undefined), the T/C is 101 % of control (dose: 12.5 mg/kg/injection, schedule: Q01DX005 (ip), vehicle: other); 101 % of control (dose: 25.0 mg/kg/injection, schedule: Q01DX005 (ip), vehicle: other); 111 % of control (dose: 50.0 mg/kg/injection, schedule: Q01DX005 (ip), vehicle: other); 116 % of control (dose: 50.0 mg/kg/injection, schedule: Q01DX005 (ip), vehicle: saline + Tween-80 + alcohol).
In the case of `COc1ccccc1C(Nc1ccc([N+](=O)[O-])cc1)P(=O)(Oc1ccccc1)Oc1ccccc1` (centres undefined), the T/C by setting is: under setting [5], 95 % of control; under setting [6], 106 % of control; under setting [7], 95 % of control.
With `O=C1/C(=C/c2ccc(O)cc2)CCC/C1=C\c1ccc(O)cc1`, the T/C under setting [8] is 97 % of control, the T/C under setting [9] was 93 % of control and the T/C under setting [10] is 92 % of control.
`CCC[CH2][Sn]1([CH2]CCC)[O]CCN2CCN(CC[O]1)CC2`: the T/C runs as follows: (dose: 3.75 mg/kg/injection, schedule: Q01DX005 (ip), vehicle: saline with Tween-80) 102 % of control; (dose: 7.5 mg/kg/injection, schedule: Q01DX005 (ip), vehicle: saline with Tween-80) 100 % of control; (dose: 15.0 mg/kg/injection, schedule: Q01DX005 (ip), vehicle: saline with Tween-80) 100 % of control.
Regarding `NC(=O)NO`, the T/C is, setting by setting: (dose: 112.0 mg/kg/injection, schedule: Q03HX024 (ip), vehicle: saline) 83 % of control; under setting [4], 160 % of control; (dose: 300.0 mg/kg/injection, schedule: Q01DX009 (ip), vehicle: saline) 185 % of control; (dose: 450.0 mg/kg/injection, schedule: Q01DX009 (ip), vehicle: saline) 160 % of control and 184 % of control; (dose: 500.0 mg/kg/injection, schedule: Q01DX009 (ip), vehicle: saline) 200 % of control; (dose: 750.0 mg/kg/injection, schedule: Q01DX009 (ip), vehicle: saline) 100 % of control and 98 % of control. Also, the T/C (dose: 2000.0 mg/kg/injection, schedule: Q01DX001 (ip), vehicle: saline) was 98 % of control.
In the case of `CC1Cn2c(Cc3ccccc3)nnc2S1` (centres undefined), the T/C under setting [8] was 104 % of control, the T/C under setting [9] was 93 % of control and the T/C under setting [10] was 100 % of control.
Turning to `CCCCNC(=S)NC1C2CC3CC(C2)CC1C3` (centres undefined), the T/C was 97 % of control under setting [11], 98 % of control under setting [12] and 101 % of control under setting [13].
For `NNC(=O)C1C2c3ccccc3C(c3ccccc32)C1C(=O)O` (centres undefined), the T/C reads like this: under setting [8], 99 % of control; under setting [9], 101 % of control; under setting [10], 103 % of control.
